Measurements from ChEMBL document CHEMBL1201861, “Genomics of Drug Sensitity in Cancer screening data, Wellcome Trust Sanger Institute”.

Legend:
RT-4 = assay: SANGER: Inhibition of human RT4 cell growth in a cell viability assay.; assay type: functional, cell-based
C-4-II = assay: SANGER: Inhibition of human C-4-II cell growth in a cell viability assay.; assay type: functional, cell-based
Calu-1 = assay: SANGER: Inhibition of human Calu-1 cell growth in a cell viability assay.; assay type: functional, cell-based
23132-87 = assay: cells; assay type: functional, cell-based; settings: Homo sapiens
Description: SANGER: Inhibition of human 23132-87 cell growth in a cell viability assay.

HSC-3 = assay: cells; assay type: functional, cell-based; settings: Homo sapiens
Description: SANGER: Inhibition of human HSC-3 cell growth in a cell viability assay.

IPC-298 = assay: SANGER: Inhibition of human IPC-298 cell growth in a cell viability assay.; assay type: functional, cell-based
HCT-15 = assay: cells; assay type: functional, cell-based; settings: Homo sapiens;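 also: cell viability readout, IC50 reflecting suppression of HCT-15 cell growth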
Description: SANGER: Inhibition of human HCT-15 cell growth in a cell viability assay.

SW48 = assay: cells; assay type: functional, cell-based; settings: Homo sapiens;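 also: growth inhibition of SW48 cells, read out with a cell viability assay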
Description: SANGER: Inhibition of human SW48 cell growth in a cell viability assay.

SK-MEL-28 = assay: cells; assay type: functional, cell-based; settings: Homo sapiens;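 also: growth inhibition of human SK-MEL-28 cells, read out with a cell viability assay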
Description: SANGER: Inhibition of human SK-MEL-28 cell growth in a cell viability assay.

Calu-3 = assay: cells; assay type: functional, cell-based; settings: Homo sapiens;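 also: growth inhibition of human Calu-3 cells, determined with a cell viability assay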
Description: SANGER: Inhibition of human Calu-3 cell growth in a cell viability assay.

786-0 = assay: cells; assay type: functional, cell-based; settings: Homo sapiens
Description: SANGER: Inhibition of human 786-0 cell growth in a cell viability assay.

DMS-53 = assay: cells; assay type: functional, cell-based; settings: Homo sapiens;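 also: cell viability assay measuring growth inhibition of human DMS-53 cells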
Description: SANGER: Inhibition of human DMS-53 cell growth in a cell viability assay.

HN = assay: cells; assay type: functional, cell-based; settings: Homo sapiens
Description: SANGER: Inhibition of human HN cell growth in a cell viability assay.

EVSA-T = assay: cells; assay type: functional, cell-based, Homo sapiens; settings: Homo sapiens, EVSA-T;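 also: growth inhibition of EVSA-T cells, read out with a cell viability assay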
Description: SANGER: Inhibition of human EVSA-T cell growth in a cell viability assay.

KMOE-2 = assay: cells; assay type: functional, cell-based, Homo sapiens; settings: Homo sapiens, KMOE-2;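 also: growth inhibition of human KMOE-2 cells, read out with a cell viability assay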
Description: SANGER: Inhibition of human KMOE-2 cell growth in a cell viability assay.

FTC-133 = assay: cells; assay type: functional, cell-based; settings: Homo sapiens
COR-L23 = assay: cells; assay type: functional, cell-based; settings: Homo sapiens;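 also: cell viability assay measuring how strongly compounds suppress growth of COR-L23 cells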
Description: SANGER: Inhibition of human COR-L23 cell growth in a cell viability assay.

KU-19-19 = assay: cells; assay type: functional, cell-based; settings: Homo sapiens
Description: SANGER: Inhibition of human KU-19-19 cell growth in a cell viability assay.

MDA-MB-468 = assay: cells; assay type: functional, cell-based; settings: Homo sapiens
Description: SANGER: Inhibition of human MDA-MB-468 cell growth in a cell viability assay.

UO-31 = assay: cells; assay type: functional, cell-based; settings: Homo sapiens
Description: SANGER: Inhibition of human U031 cell growth in a cell viability assay.

EW-24 = assay: cells; assay type: functional, cell-based, Homo sapiens; settings: Homo sapiens, EW-24;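 also: human EW-24 cancer cell line, growth inhibition read out via a cell viability assay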
Description: SANGER: Inhibition of human EW-24 cell growth in a cell viability assay.

HuO9 = assay: cells; assay type: functional, cell-based; settings: Homo sapiens;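 also: growth inhibition of HuO9 cells, read out with a cell viability assay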
Description: SANGER: Inhibition of human HuO9 cell growth in a cell viability assay.

DK-MG = assay: cells; assay type: functional, cell-based; settings: Homo sapiens;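 also: growth inhibition of DK-MG cells, read out with a cell viability assay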
Description: SANGER: Inhibition of human DK-MG cell growth in a cell viability assay.

HCC38 = assay: cells; assay type: functional, cell-based; settings: Homo sapiens;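 also: cell viability assay on the human HCC38 cell line, with IC50 marking the concentration that inhibits cell growth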
Description: SANGER: Inhibition of human HCC38 cell growth in a cell viability assay.

NCI-H345 = assay: cells; assay type: functional, cell-based, Homo sapiens; settings: Homo sapiens, NCI-H345;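 also: growth inhibition of NCI-H345 cells measured with a cell viability assay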
Description: SANGER: Inhibition of human NCI-H345 cell growth in a cell viability assay.

HLE = assay: cells; assay type: functional, cell-based; settings: Homo sapiens;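 also: growth inhibition of human HLE cells, read out by a cell viability assay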
Description: SANGER: Inhibition of human HLE cell growth in a cell viability assay.

CAL-39 = assay: cells; assay type: functional, cell-based; settings: Homo sapiens;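 also: cell viability assay measuring growth inhibition of CAL-39 cells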
Description: SANGER: Inhibition of human CAL-39 cell growth in a cell viability assay.

RT-112 = assay: cells; assay type: functional, cell-based; settings: Homo sapiens
Description: SANGER: Inhibition of human RT-112 cell growth in a cell viability assay.

BHT-101 = assay: cells; assay type: functional, cell-based; settings: Homo sapiens
Description: SANGER: Inhibition of human BHT-101 cell growth in a cell viability assay.

DV-90 = assay: cells; assay type: functional, cell-based; settings: Homo sapiens;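 also: Read-out is a viability assay, with IC50 reflecting the drop in DV-90 cell growth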
Description: SANGER: Inhibition of human DV-90 cell growth in a cell viability assay.

HT55 = assay: cells; assay type: functional, cell-based; settings: Homo sapiens;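 also: cell viability readout measuring growth inhibition of human HT55 cells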
Description: SANGER: Inhibition of human HT55 cell growth in a cell viability assay.

TE-15 = assay: cells; assay type: functional, cell-based, Homo sapiens; settings: Homo sapiens, TE-15;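 also: cell viability readout of growth inhibition in TE-15 cells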
Description: SANGER: Inhibition of human TE-15 cell growth in a cell viability assay.

COLO 205 = assay: cells; assay type: functional, cell-based; settings: Homo sapiens
Description: SANGER: Inhibition of human COLO-205 cell growth in a cell viability assay.

EB2 = assay: cells; assay type: functional, cell-based, Homo sapiens; settings: Homo sapiens, EB2;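 also: growth inhibition of EB2 cells, read out with a cell viability assay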
Description: SANGER: Inhibition of human EB2 cell growth in a cell viability assay.

SK-MEL-24 = assay: cells; assay type: functional, cell-based; settings: Homo sapiens;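 also: growth inhibition read out by a cell viability assay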
Description: SANGER: Inhibition of human SK-MEL-24 cell growth in a cell viability assay.

NCI-H838 = assay: cells; assay type: functional, cell-based; settings: Homo sapiens;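 also: growth inhibition of human NCI-H838 cells, read out by a cell viability assay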
Description: SANGER: Inhibition of human NCI-H838 cell growth in a cell viability assay.

CAL-27 = assay: cells; assay type: functional, cell-based; settings: Homo sapiens;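 also: Viability-based readout, IC50 reflecting inhibition of CAL-27 cell growth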
Description: SANGER: Inhibition of human CAL-27 cell growth in a cell viability assay.

MeWo = assay: cells; assay type: functional, cell-based; settings: Homo sapiens;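 also: growth inhibition of MeWo cells, determined by a cell viability readout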
Description: SANGER: Inhibition of human Mewo cell growth in a cell viability assay.

MIA PaCa-2 = assay: cells; assay type: functional, cell-based; settings: Homo sapiens;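 also: growth inhibition of MIA PaCa-2 cells, read out with a cell viability assay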
Description: SANGER: Inhibition of human MIA-PaCa-2 cell growth in a cell viability assay.

EC-GI-10 = assay: cells; assay type: functional, cell-based, Homo sapiens; settings: Homo sapiens, EC-GI-10
Description: SANGER: Inhibition of human EC-GI-10 cell growth in a cell viability assay.

MDA-MB-175-VII = assay: cells; assay type: functional, cell-based; settings: Homo sapiens
CHP-212 = assay: cells; assay type: functional, cell-based; settings: Homo sapiens
Description: SANGER: Inhibition of human CHP-212 cell growth in a cell viability assay.

T84 = assay: cells; assay type: functional, cell-based; settings: Homo sapiens;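 also: growth inhibition measured with a cell viability readout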
Description: SANGER: Inhibition of human T84 cell growth in a cell viability assay.

Capan-2 = assay: cells; assay type: functional, cell-based; settings: Homo sapiens;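 also: Capan-2 cell growth inhibition, read out with a viability assay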
Description: SANGER: Inhibition of human Capan-2 cell growth in a cell viability assay.

NCI-H1734 = assay: cells; assay type: functional, cell-based; settings: Homo sapiens;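 also: growth inhibition of human NCI-H1734 cells, read out with a cell viability assay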
Description: SANGER: Inhibition of human NCI-H1734 cell growth in a cell viability assay.

MG-63 = assay: cells; assay type: functional, cell-based; settings: Homo sapiens;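 also: growth inhibition of human MG-63 cells, read out with a cell viability assay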
Description: SANGER: Inhibition of human MG-63 cell growth in a cell viability assay.

HCC1143 = assay: cells; assay type: functional, cell-based; settings: Homo sapiens;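 also: growth inhibition of human HCC1143 cells, read out with a cell viability assay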
Description: SANGER: Inhibition of human HCC1143 cell growth in a cell viability assay.

MRK-nu-1 = assay: cells; assay type: functional, cell-based, Homo sapiens; settings: Homo sapiens, MRK-nu-1;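 also: cell viability assay measuring growth suppression of human MRK-nu-1 cells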
Description: SANGER: Inhibition of human MRK-nu-1 cell growth in a cell viability assay.

BC-3 = assay: cells; assay type: functional, cell-based, Homo sapiens; settings: Homo sapiens, BC-3;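 also: cell viability assay measuring growth inhibition of human BC-3 cells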
Description: SANGER: Inhibition of human BC-3 cell growth in a cell viability assay.

TCC-SUP = assay: cells; assay type: functional, cell-based; settings: Homo sapiens;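 also: growth inhibition of TCC-SUP cells, read out with a cell viability assay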
Description: SANGER: Inhibition of human TCCSUP cell growth in a cell viability assay.

TUR = assay: cells; assay type: functional, cell-based, Homo sapiens; settings: Homo sapiens, TUR;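 also: growth inhibition of human TUR cells, read out with a cell viability assay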
Description: SANGER: Inhibition of human TUR cell growth in a cell viability assay.

Work on `CO[C@@H]1[C@H](N(C)C(=O)c2ccccc2)C[C@H]2O[C@]1(C)n1c3ccccc3c3c4c(c5c6ccccc6n2c5c31)C(=O)NC4` [MIDOSTAURIN] yielded an IC50 (RT-4) greater than 512 nM, an IC50 (C-4-II) of 349 nM and an IC50 (Calu-1) greater than 512 nM. It also gave an IC50 (23132-87) greater than 512 nM, an IC50 (HSC-3) greater than 512 nM and an IC50 (IPC-298) greater than 512 nM. The IC50 (HCT-15) was 334 nM and the IC50 (SW48) was 267 nM.
`Cc1ccc(C(=O)Nc2ccc(CN3CCN(C)CC3)c(C(F)(F)F)c2)cc1C#Cc1cnc2cccnn12` [PONATINIB] showed an IC50 (SK-MEL-28) greater than 512 nM, an IC50 (Calu-3) greater than 512 nM and an IC50 (786-0) of 262 nM. For the same molecule, the IC50 (RT-4) was 451 nM, the IC50 (DMS-53) was greater than 512 nM and the IC50 (HN) was greater than 512 nM. The IC50 (EVSA-T) was greater than 512 nM, the IC50 (KMOE-2) was greater than 512 nM and the IC50 (FTC-133) was greater than 512 nM. For the same molecule, the IC50 (COR-L23) was greater than 512 nM, the IC50 (KU-19-19) was greater than 512 nM and the IC50 (MDA-MB-468) was greater than 512 nM. It also gave an IC50 (UO-31) greater than 512 nM, an IC50 (EW-24) greater than 512 nM and an IC50 (C-4-II) greater than 512 nM. It also gave an IC50 (HuO9) of 54.5 nM, an IC50 (DK-MG) greater than 512 nM and an IC50 (HCC38) greater than 512 nM. The IC50 (NCI-H345) was greater than 512 nM, the IC50 (HLE) was 419 nM and the IC50 (CAL-39) was 465 nM. It also gave an IC50 (Calu-1) greater than 512 nM, an IC50 (23132-87) greater than 512 nM and an IC50 (RT-112) of 238 nM. For the same molecule, the IC50 (HSC-3) was greater than 512 nM, the IC50 (BHT-101) was greater than 512 nM and the IC50 (DV-90) was greater than 512 nM. It also gave an IC50 (HT55) greater than 512 nM, an IC50 (TE-15) of 261 nM and an IC50 (COLO 205) greater than 512 nM. For the same molecule, the IC50 (EB2) was 55.8 nM, the IC50 (SK-MEL-24) was 398 nM and the IC50 (NCI-H838) was greater than 512 nM. For the same molecule, the IC50 (CAL-27) was greater than 512 nM, the IC50 (MeWo) was greater than 512 nM and the IC50 (MIA PaCa-2) was greater than 512 nM. For the same molecule, the IC50 (IPC-298) was greater than 512 nM, the IC50 (EC-GI-10) was greater than 512 nM and the IC50 (HCT-15) was greater than 512 nM. For the same molecule, the IC50 (MDA-MB-175-VII) was greater than 512 nM, the IC50 (CHP-212) was greater than 512 nM and the IC50 (T84) was greater than 512 nM. It also gave an IC50 (Capan-2) greater than 512 nM, an IC50 (NCI-H1734) greater than 512 nM and an IC50 (MG-63) greater than 512 nM. For the same molecule, the IC50 (HCC1143) was greater than 512 nM, the IC50 (MRK-nu-1) was greater than 512 nM and the IC50 (BC-3) was greater than 512 nM. For the same molecule, the IC50 (SW48) was greater than 512 nM.
In the case of `OC[C@H](Cc1ccccc1)Nc1nc(Oc2ccc3c(c2)CCC3)nc2c1ncn2Cc1ccc(-c2ccccc2)cc1`, the IC50 (SK-MEL-28) is reported as greater than 10200 nM, the IC50 (Calu-3) is reported as greater than 10200 nM and the IC50 (786-0) is reported as 1260 nM. The IC50 (RT-4) was greater than 10200 nM, the IC50 (DMS-53) was greater than 10200 nM and the IC50 (HN) was 8170 nM. The IC50 (EVSA-T) was greater than 10200 nM, the IC50 (KMOE-2) was greater than 10200 nM and the IC50 (FTC-133) was greater than 10200 nM. For the same molecule, the IC50 (COR-L23) was 6890 nM, the IC50 (KU-19-19) was greater than 10200 nM and the IC50 (MDA-MB-468) was greater than 10200 nM. For the same molecule, the IC50 (UO-31) was greater than 10200 nM, the IC50 (TCC-SUP) was greater than 10200 nM and the IC50 (EW-24) was greater than 10200 nM. For the same molecule, the IC50 (C-4-II) was greater than 10200 nM, the IC50 (DK-MG) was greater than 10200 nM and the IC50 (HCC38) was greater than 10200 nM. The IC50 (NCI-H345) was greater than 10200 nM, the IC50 (HLE) was 5660 nM and the IC50 (CAL-39) was greater than 10200 nM. For the same molecule, the IC50 (Calu-1) was 2610 nM, the IC50 (23132-87) was 6070 nM and the IC50 (RT-112) was greater than 10200 nM. The IC50 (HSC-3) was 3880 nM, the IC50 (BHT-101) was greater than 10200 nM and the IC50 (DV-90) was greater than 10200 nM. For the same molecule, the IC50 (HT55) was greater than 10200 nM, the IC50 (TE-15) was greater than 10200 nM and the IC50 (COLO 205) was 2290 nM. The IC50 (EB2) was greater than 10200 nM, the IC50 (SK-MEL-24) was greater than 10200 nM and the IC50 (NCI-H838) was greater than 10200 nM. It also gave an IC50 (CAL-27) greater than 10200 nM, an IC50 (MeWo) greater than 10200 nM and an IC50 (MIA PaCa-2) of 8880 nM. The IC50 (IPC-298) was greater than 10200 nM, the IC50 (EC-GI-10) was greater than 10200 nM and the IC50 (HCT-15) was 2490 nM. The IC50 (MDA-MB-175-VII) was greater than 10200 nM, the IC50 (CHP-212) was greater than 10200 nM and the IC50 (T84) was greater than 10200 nM. The IC50 (Capan-2) was greater than 10200 nM, the IC50 (NCI-H1734) was greater than 10200 nM and the IC50 (MG-63) was 4630 nM. For the same molecule, the IC50 (HCC1143) was greater than 10200 nM, the IC50 (MRK-nu-1) was greater than 10200 nM and the IC50 (BC-3) was 6660 nM. It also gave an IC50 (SW48) greater than 10200 nM and an IC50 (TUR) greater than 10200 nM.
